Measurements as given in publication PMC8896804 (Science Advances, 2022).

Experiments:
[1] = system: platytocin receptor (PTR); assay type: cell-based; settings: COS-7 cells transfected with ptr, cotreated with platytocin 90 min at 37°C; global Schild analysis, slope of 1; mean ± SEM, n = 4
S. pusilla = assay: Survival after hyper-osmotic salinity exposure; assay type: in vivo, Stylochoplana pusilla; settings: 10^−6 M OVTA, n = 45, Fig. 3B

In the case of “[d(CH2)5^1, Tyr(Me)^2, Thr^4, Orn^8, Tyr^9-NH2]–vasotocin [OVTA]”, the “pA2, block of platytocin-mediated IP1 accumulation” value [1] is reported as 6.99 ± 0.27 and the “hyperosmolality (70 ppt) resistance” value (S. pusilla) is reported as “Hyperosmolality (70 ppt) resistance is blocked by 10^−6 M OVTA”.
